Reference: patent publication US8378117B2 (priority 2005, dated 2013)
Where two headings read alike, the source gives them in different places.

Assays:
CB2 receptor = biological target: T1, CB2 receptor (Homo sapiens, UniProt P34972); experiment: Binding assay for CB2 agonists or inverse agonists (SK-N-MC membranes, [3H]-CP-55,940); settings: for CB2 receptor binding percent inhibition: test concentration not stated; for inhibition at 0.2 µM: read-out: CB2 receptor binding percent inhibition, test concentration 0.2 μM (footnote 2)
T1 construct: expressed in transfected cells
Method in brief: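 Membranes from SK-N-MC cells stably expressing human CB2 were incubated with radioligand and test compounds for 90 min at 30 °C in Tris-HCl buffer, pH 7.5, with MgCl2, EDTA and fatty-acid-free BSA. Filter-bound radioactivity was counted; IC50 was derived by linear regression of percent inhibition.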

CB1 receptor [1] = biological target: T2, CB1 receptor (Homo sapiens, UniProt P21554); experiment: Binding assay for CB1 agonists or inverse agonists (SK-N-MC membranes, [3H]-CP-55,940); settings: for inhibition at 0.2 µM: read-out: CB1 receptor binding percent inhibition, test concentration 0.2 μM (footnote 2)
T2 construct: expressed in transfected cells
Method in brief: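 Membranes from SK-N-MC cells stably expressing human CB1 incubated with compound and [3H]-CP-55,940 ([…]) for 90 min at 30° C in Tris-HCl pH 7.5, MgCl2, EDTA, fatty-acid-free BSA. Non-specific binding defined with 10 uM WIN 55,212; filtration, scintillation count; IC50 by linear regression.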

CB1 receptor [2] = biological target: T2, CB1 receptor; experiment: cell-based; settings: SK-N-MC cells
Description: The CB1 and CB2 receptors are G-protein coupled receptors (GPCR), which influence cell function via the Gi-protein. These receptors modulate the activity of intracellular adenylate cyclase, which in turn produces the intracellular signal messenger cyclic-AMP (cAMP).
At baseline, or during non-ligand bound conditions, these receptors are constitutively active and tonically suppress adenylate cyclase activity. The binding of an agonist causes further receptor activation and produces additional suppression of adenylate cyclase activity. The binding of an inverse agonist inhibits the constitutive activity of the receptors and results in an increase in adenylate cyclase activity.
By monitoring intracellular adenylate cyclase activity, the ability of compounds to act as agonists or inverse agonists can be determined.
Test compounds were evaluated in SK-N-MC cells which, using standard transfection procedures, were stably transfected with human cDNA for pcDNA3-CRE β-gal and pcDNA3 CB1 receptor (human) or pcDNA3 CB2 receptor (human). By expressing CRE β-gal, the cells produced β-galactosidase in response to CRE promoter activation by cAMP. Cells expressing CRE β-gal and either the human CB1 or CB2 receptor will produce less β-galactosidase when treated with a CB1/CB2 agonist and will produce more β-galactosidase when treated with a CB1/CB2 inverse agonist.
The cells were grown in 96-well plates under standard cell culture conditions at 37° C. in a 5% CO2 atmosphere and culture media (wherein the media was supplemented with 2 mM L-glutamine, […] sodium pyruvate, 10% FBS (fetal bovine serum) and antibiotics).
The change in forskolin induced β-galactosidase activity was determined by setting a vehicle treated cell's activity value at 100% and expressing the β-galactosidase activity measured in a corresponding compound treated cell as a percent of the vehicle treated cell activity.
The EC50 value for functional activity for compounds tested was calculated by linear regression and was obtained from studies in which varying compound concentrations were used.
Where an EC50 value was not obtained for a test compound, the value shown (in %) represents change in functional activity and was obtained from a study in which one compound concentration was used.

[3] = Cannabinoid CB1 Receptor Binding IC50, calculated by linear regression from percent inhibition at various test concentrations
[4] = read-out: CB1 receptor binding percent inhibition, test concentration 1 μM (footnote 1)
[5] = CB1 Receptor Functional Inverse Agonist EC50, forskolin induced β-galactosidase activity
[6] = forskolin induced β-galactosidase activity, read-out: CB1 Receptor Functional Inverse Agonist EC50
[7] = read-out: CB1 receptor binding percent inhibition

T1 sequence (P34972 whole entry): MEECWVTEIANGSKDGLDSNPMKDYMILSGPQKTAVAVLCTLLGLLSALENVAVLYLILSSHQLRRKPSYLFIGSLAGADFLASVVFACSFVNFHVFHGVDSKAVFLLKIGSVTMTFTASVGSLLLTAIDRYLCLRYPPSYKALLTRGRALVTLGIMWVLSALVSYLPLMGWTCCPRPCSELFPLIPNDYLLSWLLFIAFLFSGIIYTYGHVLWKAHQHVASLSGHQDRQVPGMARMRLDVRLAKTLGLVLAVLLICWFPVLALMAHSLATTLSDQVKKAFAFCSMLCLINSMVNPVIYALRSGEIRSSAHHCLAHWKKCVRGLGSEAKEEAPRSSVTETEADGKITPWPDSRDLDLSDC
T2 sequence (P21554 whole entry): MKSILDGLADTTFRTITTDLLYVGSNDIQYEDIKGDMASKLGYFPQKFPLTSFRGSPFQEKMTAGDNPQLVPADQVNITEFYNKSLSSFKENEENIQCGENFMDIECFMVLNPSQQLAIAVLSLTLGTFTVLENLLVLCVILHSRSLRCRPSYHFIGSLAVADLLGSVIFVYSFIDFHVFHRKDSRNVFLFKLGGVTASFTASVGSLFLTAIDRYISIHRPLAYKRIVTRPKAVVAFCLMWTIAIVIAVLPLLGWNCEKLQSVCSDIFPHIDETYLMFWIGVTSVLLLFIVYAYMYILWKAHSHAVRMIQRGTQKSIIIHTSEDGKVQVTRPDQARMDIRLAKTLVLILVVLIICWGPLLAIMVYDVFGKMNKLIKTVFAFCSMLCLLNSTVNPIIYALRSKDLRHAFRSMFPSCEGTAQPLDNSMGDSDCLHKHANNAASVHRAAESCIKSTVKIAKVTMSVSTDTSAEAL

Row | SMILES | CB2 receptor binding percent inhibition (CB2 receptor) | IC50 (CB1 receptor [1]; [3]) | inhibition at 1 µM (CB1 receptor [1]; [4]) | EC50 (CB1 receptor [2]; [5]) | inhibition at 0.2 µM (CB2 receptor) | inhibition at 0.2 µM (CB1 receptor [1]) | further results
1 | O=C(NN1CCOCC1)c1nn(-c2ccc(Cl)cc2Cl)c2c1CCCCC2Cc1cccc(F)c1 (centres unmarked) [Cpd 91, 1-(2,4-dichloro-phenyl)-8-(3-fluoro-benzyl)-1,4,5,6,7,8-hexahydro-cycloheptapyrazole-3-carboxylic acid morpholin-4-ylamide] | 0% | 300 nM | 68% | 70 nM |  |  | 
2 | C[C@H](NC(=O)c1nn(-c2ccc(Cl)cc2Cl)c2c1CCCC/C2=C\c1ccc(F)cc1)C1CCCCC1 [Cpd 148, (8E)-1-(2,4-dichloro-phenyl)-8-(4-fluoro-benzylidene)-1,4,5,6,7,8-hexahydro-cycloheptapyrazole-3-carboxylic acid [(1S)-1-cyclohexyl-ethyl]-amide] |  | 80 nM |  | 200 nM | 39% | 69% | 
3 | CC(C)(NC(=O)c1nn(-c2ccc(Cl)cc2Cl)c2c1CCCC/C2=C\c1ccc(F)cc1)c1ccccc1 [Cpd 205, (8E)-1-(2,4-dichloro-phenyl)-8-(4-fluoro-benzylidene)-1,4,5,6,7,8-hexahydro-cycloheptapyrazole-3-carboxylic acid (1-methyl-1-phenyl-ethyl)-amide] |  | 20 nM |  | 9 nM | 27% | 93% | 
4 | O=C(NCCc1ccccn1)c1nn(-c2ccc(Cl)cc2Cl)c2c1CCCC/C2=C\c1ccc(Cl)cc1 [Cpd 157, (8E)-8-(4-chloro-benzylidene)-1-(2,4-dichloro-phenyl)-1,4,5,6,7,8-hexahydro-cycloheptapyrazole-3-carboxylic acid (2-pyridin-2-yl-ethyl)-amide] |  | 100 nM |  | 40 nM | 5% | 68% | 
5 | O=C(N[C@@H]1c2ccccc2C[C@@H]1O)c1nn(C2CCCCC2)c2c1CCCC[C@@H]2Cc1ccc(F)cc1 [Cpd 120, (8R)-1-cyclohexyl-8-(4-fluoro-benzyl)-1,4,5,6,7,8-hexahydro-cycloheptapyrazole-3-carboxylic acid [(1R,2S)-2-hydroxy-indan-1-yl]-amide] | 16% |  | 9% | 100 nM |  |  | 
6 | O=C(N[C@@H]1c2ccccc2C[C@@H]1O)c1nn(-c2ccc(Cl)cc2Cl)c2c1CCCCC2Cc1cccc(Cl)c1 (single isomer, unassigned) [Cpd 112, (8R*)-8-(3-chloro-benzyl)-1-(2,4-dichloro-phenyl)-1,4,5,6,7,8-hexahydro-cycloheptapyrazole-3-carboxylic acid [(1R,2S)-2-hydroxy-indan-1-yl]-amide] | 16% |  | 49% | 60 nM |  |  | 
7 | CCOC(=O)[C@H]1C2C=CC(C2)[C@H]1NC(=O)c1nn(-c2ccc(F)cc2F)c2c1CCCCC2Cc1cccc(F)c1 (stereo partly drawn) [Cpd 99, (2S,3R)-3-{[1-(2,4-difluoro-phenyl)-8-(3-fluoro-benzyl)-1,4,5,6,7,8-hexahydro-cycloheptapyrazole-3-carbonyl]-amino}-bicyclo[2.2.1]hept-5-ene-2-carboxylic acid ethyl ester] | 24% |  | 17% |  |  |  | EC50 (CB1 receptor [2]; [6]): 200 nM
8 | CCOC(=O)[C@@H]1C2CCC(C2)[C@@H]1NC(=O)c1nn(-c2ccc(F)cc2F)c2c1CCCCC2Cc1ccc(F)cc1 (stereo partly drawn) [Cpd 110, (2R,3S)-3-{[1-(2,4-difluoro-phenyl)-8-(4-fluoro-benzyl)-1,4,5,6,7,8-hexahydro-cycloheptapyrazole-3-carbonyl]-amino}-bicyclo[2.2.1]heptane-2-carboxylic acid ethyl ester] | 59% |  |  | 100 nM |  |  | inhibition at 0.5 µM (CB1 receptor [1]; [7]): 48%; inhibition at 1 µM (CB1 receptor [1]; [7]): 63%; CB1 receptor binding percent inhibition (CB1 receptor [1]; test concentration not stated): 56%
9 | O=C(NCc1ccc(C(F)(F)F)cc1)c1nn(-c2ccc(Cl)cc2Cl)c2c1CCCCC2Cc1ccc(Cl)cc1 (centres unmarked) [Cpd 26, 8-(4-chloro-benzyl)-1-(2,4-dichloro-phenyl)-1,4,5,6,7,8-hexahydro-cycloheptapyrazole-3-carboxylic acid 4-trifluoromethyl-benzylamide] | 29% |  | 70% |  |  |  | inhibition at 1 µM (CB2 receptor; test concentration 1 μM (footnote 1), read-out: CB2 receptor binding percent inhibition): 35%; inhibition at 2 µM (CB2 receptor; test concentration 2 μM (footnote 6), read-out: CB2 receptor binding percent inhibition): 22%; inhibition at 2 µM (CB1 receptor [1]; read-out: CB1 receptor binding percent inhibition, test concentration 2 μM (footnote 6)): 55%; CB1 receptor binding percent inhibition (CB1 receptor [1]; test concentration not stated): 63%; EC50 (CB1 receptor [2]; [6]): 600 nM
10 | O=C(NN1CCOCC1)c1nn(-c2ccc(Cl)cc2Cl)c2c1CCCC/C2=C\c1ccc(Cl)cc1 [Cpd 134, (8E)-8-(4-chloro-benzylidene)-1-(2,4-dichloro-phenyl)-1,4,5,6,7,8-hexahydro-cycloheptapyrazole-3-carboxylic acid morpholin-4-ylamide] |  |  |  | 10 nM |  |  | inhibition at 0.25 µM (CB2 receptor; read-out: CB2 receptor binding percent inhibition, test concentration 0.25 μM (footnote 8)): 28%; inhibition at 0.25 µM (CB1 receptor [1]; read-out: CB1 receptor binding percent inhibition, test concentration 0.25 μM (footnote 8)): 58%
11 | C[C@H](NC(=O)c1nn(Cc2ccccc2)c2c1CCCCC2c1ccccc1)c1ccccc1 (stereo partly drawn) [Cpd 48, 1-benzyl-8-phenyl-1,4,5,6,7,8-hexahydro-cycloheptapyrazole-3-carboxylic acid [(1S)-1-phenyl-ethyl]-amide] | 42% |  | 63% |  |  |  | IC50 (CB1 receptor [1]; calculated by linear regression from percent inhibition at various test concentrations, read-out: Cannabinoid CB1 Receptor Binding IC50): 300 nM; EC50 (CB1 receptor [2]; [6]): 300 nM
12 | O=C(c1nn(-c2ccc(Cl)cc2Cl)c2c1CCCC/C2=C\c1ccc(F)cc1)N1CCCCC1c1ccccn1 (centres unmarked) [Cpd 206, (8E)-[1-(2,4-dichloro-phenyl)-8-(4-fluoro-benzylidene)-1,4,5,6,7,8-hexahydro-cycloheptapyrazol-3-yl]-(3,4,5,6-tetrahydro-2H-[2,2′]bipyridinyl-1-yl)-methanone] |  | 80 nM |  | 10 nM | 22% | 73% | 
13 | O=C(NC1CCC1)c1nn(-c2ccc(Cl)cc2Cl)c2c1CCCCC2Cc1cccc(F)c1 (centres unmarked) [Cpd 41, 1-(2,4-dichloro-phenyl)-8-(3-fluoro-benzyl)-1,4,5,6,7,8-hexahydro-cycloheptapyrazole-3-carboxylic acid cyclobutylamide] | 46% | 500 nM | 68% | 100 nM |  |  | 
14 | O=C(N[C@H](CCl)c1ccccc1)c1nn(-c2ccc(F)cc2F)c2c1CCCCC2Cc1ccc(F)cc1 (stereo partly drawn) [Cpd 172, 1-(2,4-difluoro-phenyl)-8-(4-fluoro-benzyl)-1,4,5,6,7,8-hexahydro-cycloheptapyrazole-3-carboxylic acid [(1S)-2-chloro-1-phenyl-ethyl]-amide] |  |  |  | 100 nM | 41% | 64% | 
15 | COc1ccc(/C=C2\CCCCc3c(C(=O)NN4CC5CCCC5C4)nn(-c4ccc(Cl)cc4Cl)c32)cc1 (centres unmarked) [Cpd 226, (8E)-1-(2,4-dichloro-phenyl)-8-(4-methoxy-benzylidene)-1,4,5,6,7,8-hexahydro-cycloheptapyrazole-3-carboxylic acid (hexahydro-cyclopenta[c]pyrrol-2-yl)-amide] |  | 40 nM |  | 3 nM | 48% | 72% | 
16 | O=C(N[C@@H]1c2ccccc2C[C@@H]1O)c1nn(C2CCCCC2)c2c1CCCCC2Cc1cccc(F)c1 (single isomer, unassigned) [Cpd 114, (8R*)-1-cyclohexyl-8-(3-fluoro-benzyl)-1,4,5,6,7,8-hexahydro-cycloheptapyrazole-3-carboxylic acid [(1R,2S)-2-hydroxy-indan-1-yl]-amide] | 47% |  |  | 40 nM |  |  | CB1 receptor binding percent inhibition (CB1 receptor [1]; test concentration 1 μM (footnote 1), 1 µM): ^(1)17%
